According to US6352852B1, “Method for the purification of human platelet heparanase” (The Australian National University, priority 1996, dated 2002):

How the values were obtained:
[1] = molecular target: T1, 13762 MAT cell heparanase (Rattus norvegicus, UniProt Q71RP1); assay: Gel filtration analysis of substrate degradation by rat 13762 MAT cell homogenate; assay type: biochemical; conditions: for heparanase activity towards the substrate: incubation for 16 h at pH 5.1, 6.5 or 7.5; for apparent Mr of degradation fragments: with NAM
T1 construct: A time course incubation of 13762 MAT cell homogenates with HS at pH 5.1; endogenous in cells; host or cells: rat mammary adenocarcinoma 13762 MAT cells (Triton X-100 freeze/thaw homogenate)
T1 sequence (Q71RP1 29-536): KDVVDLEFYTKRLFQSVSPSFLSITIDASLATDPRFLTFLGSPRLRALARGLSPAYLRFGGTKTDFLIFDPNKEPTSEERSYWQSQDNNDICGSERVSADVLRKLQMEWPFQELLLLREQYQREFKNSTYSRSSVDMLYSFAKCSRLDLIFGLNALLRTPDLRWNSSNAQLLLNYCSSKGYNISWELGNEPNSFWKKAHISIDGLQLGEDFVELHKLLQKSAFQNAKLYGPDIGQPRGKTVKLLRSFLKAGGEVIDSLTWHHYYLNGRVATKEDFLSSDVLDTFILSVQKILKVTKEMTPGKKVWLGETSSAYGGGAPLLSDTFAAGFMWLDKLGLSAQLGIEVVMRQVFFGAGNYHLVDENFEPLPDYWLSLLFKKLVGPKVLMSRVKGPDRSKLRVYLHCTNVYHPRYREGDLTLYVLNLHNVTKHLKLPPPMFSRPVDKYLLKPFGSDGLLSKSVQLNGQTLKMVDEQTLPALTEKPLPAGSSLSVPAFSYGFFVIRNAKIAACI
Description: To assay for heparanase activity, up to 2 μl of sample was added to an […], containing 5 mM-N-acetylmannosamine and 0.1 mg/ml BSA in a total volume of 20 μl and incubated at 37° C. for the appropriate time. The reaction was stopped by freezing the tubes, 0.3 ml cold PBS added, the solution centrifuged if necessary at 4° C. and 0.1 ml of the sample applied to a cHRG-Sepharose mini-column pre-equilibrated in PBS. The columns were washed with 0.7 ml PBS, the washings and flow through material transferred to a scintillation vial, 10 ml of scintillation fluid added, and the radioactivity determined. Enzyme activity was expressed as pmol product formed per hour per mg protein or 10^6 cells or ml of serum. The cHRG-Sepharose columns were regenerated by the addition of 1 ml of 0.05M-Tris-HCl buffer, pH 7.5, containing 2M-NaCl and then equilibrated with PBS.
Heparanase activity was also detected by gel filtration chromatography of the incubation mixture on a Superose 6 HR 10/30 column (Pharmacia LKB Biotechnology, Uppsala, Sweden), equilibrated in and subsequently developed in PBS. The Pharmacia FPLC system was run at a flow rate of 0.25 ml/min with 0.5 ml fractions collected directly into scintillation vials, to which 3 ml of scintillation fluid was added, and the radioactivity determined. The column was calibrated with ^3H-N-acetylglucosamine (221 Da), bovine lung heparin (12.5 kDa) and heparin-derived Mr ave. standards (16.7, 10.6, 6.7 and 3.1 kDa) which had been partially de-N-acetylated and re-N-acetylated with ^3H-acetic anhydride as described above for the preparation of radiolabelled HS. Radiolabelled chondroitin-6-sulphate and carboxyl-reduced HS (prepared by the method of Karamanos et al, (1988)) were also prepared by the above method.

[2] = molecular target: T2, Human platelet homogenate heparanase activity (Homo sapiens, UniProt Q9Y251); assay: Substrate degradation by human platelet homogenate heparanase activity; assay type: biochemical
T2 construct: assessed using the highly invasive rat mammary adenocarcinoma 13762 MAT and human platelet homogenates; from tissue; host or cells: human platelets (Triton X-100 freeze/thaw homogenate)
T2 sequence (Q9Y251 36-543): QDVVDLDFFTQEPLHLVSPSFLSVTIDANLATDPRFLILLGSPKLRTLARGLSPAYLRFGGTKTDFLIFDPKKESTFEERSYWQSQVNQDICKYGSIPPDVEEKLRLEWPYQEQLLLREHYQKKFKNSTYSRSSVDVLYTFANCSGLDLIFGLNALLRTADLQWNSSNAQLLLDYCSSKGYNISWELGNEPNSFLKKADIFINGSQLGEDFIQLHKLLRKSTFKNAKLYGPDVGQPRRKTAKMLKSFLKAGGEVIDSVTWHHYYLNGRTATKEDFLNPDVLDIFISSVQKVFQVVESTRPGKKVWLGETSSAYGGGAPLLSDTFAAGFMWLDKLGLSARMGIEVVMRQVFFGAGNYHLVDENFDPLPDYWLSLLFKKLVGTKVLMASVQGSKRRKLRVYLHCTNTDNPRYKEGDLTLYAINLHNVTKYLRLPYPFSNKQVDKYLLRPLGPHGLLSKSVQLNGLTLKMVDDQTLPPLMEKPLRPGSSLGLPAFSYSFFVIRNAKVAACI
Description: To assay for heparanase activity, up to 2 μl of sample was added to an incubation mixture consisting of 90 pmol of radiolabelled HS in 0.05M-sodium acetate buffer, pH 5.1, containing 5 mM-N-acetylmannosamine and 0.1 mg/ml BSA in a total volume of 20 μl and incubated at 37° C. for the appropriate time. The reaction was stopped by freezing the tubes, 0.3 ml cold PBS added, the solution centrifuged if necessary at 4° C. and 0.1 ml of the sample applied to a cHRG-Sepharose mini-column pre-equilibrated in PBS. The columns were washed with 0.7 ml PBS, the washings and flow through material transferred to a scintillation vial, 10 ml of scintillation fluid added, and the radioactivity determined. Enzyme activity was expressed as pmol product formed per hour per mg protein or 10^6 cells or ml of serum. The cHRG-Sepharose columns were regenerated by the addition of 1 ml of 0.05M-Tris-HCl buffer, pH 7.5, containing 2M-NaCl and then equilibrated with PBS.
Heparanase activity was also detected by gel filtration chromatography of the incubation mixture on a Superose 6 HR 10/30 column (Pharmacia LKB Biotechnology, Uppsala, Sweden), equilibrated in and subsequently developed in PBS. The Pharmacia FPLC system was run at a flow rate of 0.25 ml/min with 0.5 ml fractions collected directly into scintillation vials, to which 3 ml of scintillation fluid was added, and the radioactivity determined. […]

[3] = molecular target: T3, human platelet heparanase (Homo sapiens, UniProt Q9Y251); assay: Heparanase assay 2: gel filtration analysis of HS or heparin degradation by purified human platelet heparanase; assay type: biochemical; conditions: 16 h at 37° C.
T3 construct: human platelet heparanase has been purified to homogeneity from previously frozen, washed platelets; from tissue; host or cells: human platelets (frozen, washed; five-column purification)
T3 sequence (Q9Y251 158-543 limits assumed): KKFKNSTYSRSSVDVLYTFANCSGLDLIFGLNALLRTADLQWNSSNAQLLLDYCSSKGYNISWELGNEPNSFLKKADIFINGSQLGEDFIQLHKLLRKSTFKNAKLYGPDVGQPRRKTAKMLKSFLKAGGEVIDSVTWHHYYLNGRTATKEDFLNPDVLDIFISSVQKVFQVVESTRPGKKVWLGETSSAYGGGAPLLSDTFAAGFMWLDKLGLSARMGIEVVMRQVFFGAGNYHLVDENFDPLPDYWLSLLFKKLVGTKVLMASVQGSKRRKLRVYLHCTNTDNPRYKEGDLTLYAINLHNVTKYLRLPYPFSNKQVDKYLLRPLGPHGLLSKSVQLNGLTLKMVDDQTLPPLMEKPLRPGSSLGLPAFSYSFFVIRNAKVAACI
T3 sequence (Q9Y251 36-109 limits assumed): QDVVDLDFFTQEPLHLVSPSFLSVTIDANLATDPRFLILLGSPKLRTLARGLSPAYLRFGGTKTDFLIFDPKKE
Description: Heparanase activity towards 2 μg of the radiolabelled HS or heparin analogues was assayed as described above for 16 h at 37° C., and detected by gel filtration analysis of the incubation mixture on either Superose 6 (for HS degradation) or Superose 12 (for heparin degradation). The chromatography columns were both equilibrated in and developed with PBS at a flow rate of 0.25 ml/min with 0.5 ml fractions being collected directly into scintillation vials, to which 3 ml of scintillation fluid was added, and the radioactivity determined. The columns were calibrated with ^3H-N-acetylglucosamine (221 Da), bovine lung heparin (12.5 kDa) and heparin-derived Mrave. standards (16.7, 10.6, 6.7 and 3.1 kDa) which had been partially de-N-acetylated and re-N-acetylated with ^3H-acetic anhydride as described above for the preparation of radiolabelled HS.

cHRG-Sepharose = assay: Binding of HS to cHRG-Sepharose, NaCl gradient elution; set-up: species or system chicken; conditions: salt gradient at pH 7.2
Description: Binding of HS to cHRG-Sepharose; Samples in 200 μl of PBS were applied to a mini-column (0.5×4.0 cm) of cHRG-Sepharose equilibrated in PBS at 4° C. The column was washed with 2 ml of PBS and eluted with a linear gradient (2×10 mls) of PBS and 10 mM-sodium phosphate buffer, pH7.2, containing 1.2M-NaCl developed at 0.5 ml/min with 0.5 ml fractions collected directly into scintillation vials, to which 4 ml of scintillation fluid was added and the radioactivity determined. The columns were re-equilibrated in PBS for further use.

Storage stability = assay type: physicochemical; conditions: stored at −20° C. in 10% (v:v) aqueous ethanol, repeated freezing and thawing

heparanase activity towards the substrate [1]	heparanase activity towards the substrate [2]	size of fragments after cleavage [3] [kDa]	apparent Mr of degradation fragments ([1]; pH 5.1, 16 h at 37° C.) [kDa]	apparent Mr of degradation fragments ([1]; pH 6.5, 16 h at 37° C.) [kDa]	apparent Mr of degradation fragments ([1]; pH 7.5, 16 h at 37° C.) [kDa]	NaCl concentration eluting from cHRG-Sepharose (cHRG-Sepharose) [M-NaCl]	storage stability (Storage stability)	size of digestion fragments [2] [kDa]	Substance
No activity was detected	did not act	–	–	–	–	–	–	–	carboxyl-reduced heparan sulphate [CR-HS]
–	–	5	5	8	16	0.27	stable for over a year	5	heparan sulphate [HS]
No activity was detected	–	–	–	–	–	–	–	–	chondroitin-6-sulphate [chrondroitin-6-sulphate]
